Laboratory results reported in PMC7407272, “Induction of Lysosome Membrane Permeabilization as a Therapeutic Strategy to Target Pancreatic Cancer Stem Cells” (Cancers, 2020).

How the values were obtained:
Assay in all cases: KINOMEscan
Type in all cases: binding
Conditions in all cases: read-out: % Ctrl
HASPIN = target: T1, HASPIN (Homo sapiens, UniProt Q8TF76); set-up: purchased DiscoveRx KINOMEscan
T1 sequence (Q8TF76 1-798): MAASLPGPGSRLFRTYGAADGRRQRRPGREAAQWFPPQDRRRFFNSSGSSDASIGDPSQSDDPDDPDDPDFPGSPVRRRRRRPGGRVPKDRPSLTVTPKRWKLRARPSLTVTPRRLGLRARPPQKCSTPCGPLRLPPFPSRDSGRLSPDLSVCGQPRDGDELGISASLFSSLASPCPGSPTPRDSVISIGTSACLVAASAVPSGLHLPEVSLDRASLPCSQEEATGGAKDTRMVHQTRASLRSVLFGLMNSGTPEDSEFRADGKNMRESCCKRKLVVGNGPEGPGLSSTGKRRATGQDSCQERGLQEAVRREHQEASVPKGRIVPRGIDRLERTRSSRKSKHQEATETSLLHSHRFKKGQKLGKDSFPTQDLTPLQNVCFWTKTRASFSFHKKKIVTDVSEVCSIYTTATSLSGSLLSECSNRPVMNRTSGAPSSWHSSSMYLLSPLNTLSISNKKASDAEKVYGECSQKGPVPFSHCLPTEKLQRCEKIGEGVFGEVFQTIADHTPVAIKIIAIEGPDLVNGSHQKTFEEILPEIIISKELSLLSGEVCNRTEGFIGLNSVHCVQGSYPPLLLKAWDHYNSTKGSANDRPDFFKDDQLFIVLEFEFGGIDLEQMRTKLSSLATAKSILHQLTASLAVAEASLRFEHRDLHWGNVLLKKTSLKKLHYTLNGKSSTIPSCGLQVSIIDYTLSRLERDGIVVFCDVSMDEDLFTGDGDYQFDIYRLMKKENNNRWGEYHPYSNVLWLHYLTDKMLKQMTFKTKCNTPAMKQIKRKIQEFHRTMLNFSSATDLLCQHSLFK

TLK1 = target: T2, TLK1 (Homo sapiens, UniProt Q9UKI8)
T2 construct: purchased DiscoveRx KINOMEscan

CDK5 = target: T3, CDK5 (Homo sapiens, UniProt Q00535)
T3 construct: purchased DiscoveRx KINOMEscan

CSNK1D = target: T4, CSNK1D (Homo sapiens, UniProt P48730)
T4 construct: purchased DiscoveRx KINOMEscan

KIT(V559D,T670I) = target: T5, KIT(V559D,T670I) (Homo sapiens, UniProt P10721, T670I/V559D)
T5 construct: purchased DiscoveRx KINOMEscan

ULK1 = target: T6, ULK1 (Homo sapiens, UniProt O75385)
T6 construct: purchased DiscoveRx KINOMEscan

RET = target: T7, RET (Homo sapiens, UniProt P07949)
T7 construct: purchased DiscoveRx KINOMEscan
T7 sequence (P07949 29-1114): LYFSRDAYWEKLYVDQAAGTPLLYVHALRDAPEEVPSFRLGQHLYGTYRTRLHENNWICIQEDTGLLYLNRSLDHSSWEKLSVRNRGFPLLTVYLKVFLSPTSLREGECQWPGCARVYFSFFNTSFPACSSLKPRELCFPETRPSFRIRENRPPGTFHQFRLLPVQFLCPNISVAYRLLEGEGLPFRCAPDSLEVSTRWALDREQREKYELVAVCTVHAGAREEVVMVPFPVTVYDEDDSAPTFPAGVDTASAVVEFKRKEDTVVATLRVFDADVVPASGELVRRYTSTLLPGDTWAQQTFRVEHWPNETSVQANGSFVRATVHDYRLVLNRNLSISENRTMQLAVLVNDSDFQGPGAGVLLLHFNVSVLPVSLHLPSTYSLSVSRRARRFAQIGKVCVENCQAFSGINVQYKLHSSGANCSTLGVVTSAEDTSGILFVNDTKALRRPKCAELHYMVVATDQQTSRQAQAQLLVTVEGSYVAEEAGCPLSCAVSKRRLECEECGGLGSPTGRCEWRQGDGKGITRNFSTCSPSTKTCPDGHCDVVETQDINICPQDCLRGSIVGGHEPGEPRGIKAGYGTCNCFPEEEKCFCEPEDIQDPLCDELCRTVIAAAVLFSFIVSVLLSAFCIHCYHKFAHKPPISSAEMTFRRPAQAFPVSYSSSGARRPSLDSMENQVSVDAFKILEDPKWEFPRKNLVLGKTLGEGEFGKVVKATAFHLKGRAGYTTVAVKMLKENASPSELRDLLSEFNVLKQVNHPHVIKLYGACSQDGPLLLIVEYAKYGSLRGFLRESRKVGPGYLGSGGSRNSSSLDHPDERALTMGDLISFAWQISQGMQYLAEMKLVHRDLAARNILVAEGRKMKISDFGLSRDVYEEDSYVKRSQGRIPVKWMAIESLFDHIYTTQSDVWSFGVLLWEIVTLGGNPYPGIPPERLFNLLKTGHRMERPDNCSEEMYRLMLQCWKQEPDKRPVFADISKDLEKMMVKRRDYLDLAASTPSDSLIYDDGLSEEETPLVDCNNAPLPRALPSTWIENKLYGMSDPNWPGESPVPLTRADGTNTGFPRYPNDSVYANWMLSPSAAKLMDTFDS

FLT3(N841I) = target: T8, FLT3(N841I) (Homo sapiens, UniProt P36888, N841I)
T8 construct: purchased DiscoveRx KINOMEscan

HIPK1 = target: T9, HIPK1 (Homo sapiens, UniProt Q86Z02)
T9 construct: purchased DiscoveRx KINOMEscan

PIK3CA = target: T10, PIK3CA (Homo sapiens, UniProt P42336)
T10 construct: purchased DiscoveRx KINOMEscan
T10 sequence (P42336 whole entry): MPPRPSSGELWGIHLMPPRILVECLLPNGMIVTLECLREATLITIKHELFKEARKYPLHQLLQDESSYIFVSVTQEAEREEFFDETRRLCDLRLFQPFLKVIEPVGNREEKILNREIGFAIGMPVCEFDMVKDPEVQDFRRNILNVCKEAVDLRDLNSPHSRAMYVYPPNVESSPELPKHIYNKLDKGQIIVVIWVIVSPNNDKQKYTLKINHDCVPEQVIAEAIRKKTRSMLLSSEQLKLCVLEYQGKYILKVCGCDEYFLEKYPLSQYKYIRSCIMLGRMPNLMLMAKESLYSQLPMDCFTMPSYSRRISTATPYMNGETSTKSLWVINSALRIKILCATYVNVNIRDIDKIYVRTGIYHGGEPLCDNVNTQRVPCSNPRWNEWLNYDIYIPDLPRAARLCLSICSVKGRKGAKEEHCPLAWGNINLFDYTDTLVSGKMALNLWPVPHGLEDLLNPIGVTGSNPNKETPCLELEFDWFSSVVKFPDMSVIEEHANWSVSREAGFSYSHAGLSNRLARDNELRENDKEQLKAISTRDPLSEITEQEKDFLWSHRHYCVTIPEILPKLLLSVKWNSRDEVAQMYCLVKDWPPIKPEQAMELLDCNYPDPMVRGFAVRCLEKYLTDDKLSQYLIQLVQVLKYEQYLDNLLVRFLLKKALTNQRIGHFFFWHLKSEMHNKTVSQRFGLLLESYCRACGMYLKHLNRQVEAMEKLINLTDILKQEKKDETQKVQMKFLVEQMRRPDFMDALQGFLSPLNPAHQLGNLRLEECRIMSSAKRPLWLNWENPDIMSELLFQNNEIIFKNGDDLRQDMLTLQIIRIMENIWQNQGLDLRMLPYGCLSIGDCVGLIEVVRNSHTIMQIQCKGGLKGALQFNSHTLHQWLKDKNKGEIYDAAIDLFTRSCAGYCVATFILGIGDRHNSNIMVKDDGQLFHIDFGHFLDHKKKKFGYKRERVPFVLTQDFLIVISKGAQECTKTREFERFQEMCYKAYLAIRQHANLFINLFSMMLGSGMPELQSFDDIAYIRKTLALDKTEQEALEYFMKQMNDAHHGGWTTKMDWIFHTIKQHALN

RIPK4 = target: T11, RIPK4 (Homo sapiens, UniProt P57078)
T11 construct: purchased DiscoveRx KINOMEscan
T11 sequence (P57078 whole entry): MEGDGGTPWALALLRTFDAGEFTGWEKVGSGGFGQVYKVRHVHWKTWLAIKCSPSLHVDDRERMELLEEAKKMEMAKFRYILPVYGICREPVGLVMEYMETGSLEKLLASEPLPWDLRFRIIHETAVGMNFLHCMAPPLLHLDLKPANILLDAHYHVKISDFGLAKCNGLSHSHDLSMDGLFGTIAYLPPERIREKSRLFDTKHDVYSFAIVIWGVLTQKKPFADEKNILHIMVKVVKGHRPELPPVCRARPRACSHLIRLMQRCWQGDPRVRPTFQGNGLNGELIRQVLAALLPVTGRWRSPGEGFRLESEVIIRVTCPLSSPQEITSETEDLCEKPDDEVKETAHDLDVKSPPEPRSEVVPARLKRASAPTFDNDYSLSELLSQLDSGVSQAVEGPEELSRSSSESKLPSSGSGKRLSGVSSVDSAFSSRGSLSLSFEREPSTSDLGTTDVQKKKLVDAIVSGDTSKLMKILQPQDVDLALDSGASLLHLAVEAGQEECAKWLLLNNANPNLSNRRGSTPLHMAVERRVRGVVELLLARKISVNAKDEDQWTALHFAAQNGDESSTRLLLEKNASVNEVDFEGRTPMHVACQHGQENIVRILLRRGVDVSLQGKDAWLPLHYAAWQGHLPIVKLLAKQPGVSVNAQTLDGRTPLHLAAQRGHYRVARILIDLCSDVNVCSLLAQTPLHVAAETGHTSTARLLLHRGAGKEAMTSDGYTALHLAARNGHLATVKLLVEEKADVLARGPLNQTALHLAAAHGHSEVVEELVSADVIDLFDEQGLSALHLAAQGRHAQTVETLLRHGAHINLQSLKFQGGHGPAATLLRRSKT

RPS6KA5(KD1-N-t.) = target: T12, RPS6KA5(KD1-N-t.) (Homo sapiens, UniProt O75582)
T12 construct: RPS6KA5(KD1-N-t.); purchased DiscoveRx KINOMEscan

BMPR1A = target: T13, BMPR1A (Homo sapiens, UniProt P36894)
T13 construct: purchased DiscoveRx KINOMEscan

PRKG1 = target: T14, PRKG1 (Homo sapiens, UniProt Q13976)
T14 construct: purchased DiscoveRx KINOMEscan

PYK2 = target: T15, PYK2 (Homo sapiens, UniProt Q14289)
T15 construct: purchased DiscoveRx KINOMEscan

MTOR = target: T16, MTOR (Homo sapiens, UniProt P42345)
T16 construct: purchased DiscoveRx KINOMEscan

MLK1 = target: T17, MLK1 (Homo sapiens, UniProt P80192)
T17 construct: purchased DiscoveRx KINOMEscan

TIE1 = target: T18, TIE1 (Homo sapiens, UniProt P35590)
T18 construct: purchased DiscoveRx KINOMEscan

PIK3CA(E542K) = target: T19, PIK3CA(E542K) (Homo sapiens, UniProt P42336, E542K)
T19 construct: purchased DiscoveRx KINOMEscan
T19 sequence (P42336 whole entry E542K): as the sequence (P42336 whole entry) above, with E542K counted along it

DYRK1B = target: T20, DYRK1B (Homo sapiens, UniProt Q9Y463)
T20 construct: purchased DiscoveRx KINOMEscan

CAMK1B = target: T21, CAMK1B (Homo sapiens, UniProt Q6P2M8)
T21 construct: purchased DiscoveRx KINOMEscan

TSSK3 = target: T22, TSSK3 (Homo sapiens, UniProt Q96PN8)
T22 construct: purchased DiscoveRx KINOMEscan
T22 sequence (Q96PN8 whole entry): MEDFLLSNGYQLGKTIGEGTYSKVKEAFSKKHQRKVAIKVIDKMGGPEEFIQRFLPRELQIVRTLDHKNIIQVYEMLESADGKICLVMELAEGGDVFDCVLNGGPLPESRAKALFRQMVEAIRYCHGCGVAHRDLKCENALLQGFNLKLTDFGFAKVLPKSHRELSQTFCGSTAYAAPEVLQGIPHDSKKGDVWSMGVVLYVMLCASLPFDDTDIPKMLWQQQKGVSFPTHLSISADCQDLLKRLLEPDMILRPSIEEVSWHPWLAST

PAK7 = target: T23, PAK7 (Homo sapiens, UniProt Q9P286)
T23 construct: purchased DiscoveRx KINOMEscan

ABL1(F317I)-nonP = target: T24, ABL1(F317I)-nonP (Homo sapiens, UniProt P00519, F317I)
T24 construct: purchased DiscoveRx KINOMEscan
T24 sequence (P00519 whole entry F317I): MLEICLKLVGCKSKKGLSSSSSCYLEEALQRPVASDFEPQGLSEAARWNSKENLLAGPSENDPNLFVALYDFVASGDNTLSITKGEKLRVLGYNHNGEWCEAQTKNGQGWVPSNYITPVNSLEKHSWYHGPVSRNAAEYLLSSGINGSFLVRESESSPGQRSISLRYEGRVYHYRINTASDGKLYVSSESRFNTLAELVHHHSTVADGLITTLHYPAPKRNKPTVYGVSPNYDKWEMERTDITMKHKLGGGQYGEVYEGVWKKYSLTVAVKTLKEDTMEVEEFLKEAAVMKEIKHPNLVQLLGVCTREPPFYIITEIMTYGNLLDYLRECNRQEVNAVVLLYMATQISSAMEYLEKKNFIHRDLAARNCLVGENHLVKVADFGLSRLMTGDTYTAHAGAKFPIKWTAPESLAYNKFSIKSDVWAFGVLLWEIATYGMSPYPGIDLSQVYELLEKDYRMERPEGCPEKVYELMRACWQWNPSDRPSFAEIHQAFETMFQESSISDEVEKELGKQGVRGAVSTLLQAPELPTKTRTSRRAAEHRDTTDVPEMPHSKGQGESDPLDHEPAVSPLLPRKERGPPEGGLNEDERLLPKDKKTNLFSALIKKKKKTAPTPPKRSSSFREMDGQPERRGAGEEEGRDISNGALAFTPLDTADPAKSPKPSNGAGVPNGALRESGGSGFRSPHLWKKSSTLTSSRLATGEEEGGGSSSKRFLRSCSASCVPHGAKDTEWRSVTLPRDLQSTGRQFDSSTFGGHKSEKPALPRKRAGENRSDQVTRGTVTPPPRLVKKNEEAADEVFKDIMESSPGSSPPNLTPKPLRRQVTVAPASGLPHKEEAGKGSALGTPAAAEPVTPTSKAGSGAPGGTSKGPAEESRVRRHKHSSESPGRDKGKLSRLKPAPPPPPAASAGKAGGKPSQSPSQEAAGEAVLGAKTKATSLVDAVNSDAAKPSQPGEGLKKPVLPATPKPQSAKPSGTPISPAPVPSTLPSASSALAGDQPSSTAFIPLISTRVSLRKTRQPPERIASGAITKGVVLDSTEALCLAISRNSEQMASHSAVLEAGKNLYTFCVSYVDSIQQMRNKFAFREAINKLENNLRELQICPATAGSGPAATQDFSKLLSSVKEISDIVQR

RPS6KA4(KD1-N-t.) = target: T25, RPS6KA4(KD1-N-t.) (Homo sapiens, UniProt O75676)
T25 construct: RPS6KA4(KD1-N-t.); purchased DiscoveRx KINOMEscan

CAMK2B = target: T26, CAMK2B (Homo sapiens, UniProt Q13554)
T26 construct: purchased DiscoveRx KINOMEscan

PIK3CA(C420R) = target: T27, PIK3CA(C420R) (Homo sapiens, UniProt P42336, C420R)
T27 construct: purchased DiscoveRx KINOMEscan
T27 sequence (P42336 whole entry C420R): as the sequence (P42336 whole entry) above, with C420R counted along it

CDKL5 = target: T28, CDKL5 (Homo sapiens, UniProt O76039)
T28 construct: purchased DiscoveRx KINOMEscan

MST4 = target: T29, MST4 (Homo sapiens, UniProt Q9P289)
T29 construct: purchased DiscoveRx KINOMEscan

PHKG2 = target: T30, PHKG2 (Homo sapiens, UniProt P15735)
T30 construct: purchased DiscoveRx KINOMEscan
T30 sequence (P15735 whole entry): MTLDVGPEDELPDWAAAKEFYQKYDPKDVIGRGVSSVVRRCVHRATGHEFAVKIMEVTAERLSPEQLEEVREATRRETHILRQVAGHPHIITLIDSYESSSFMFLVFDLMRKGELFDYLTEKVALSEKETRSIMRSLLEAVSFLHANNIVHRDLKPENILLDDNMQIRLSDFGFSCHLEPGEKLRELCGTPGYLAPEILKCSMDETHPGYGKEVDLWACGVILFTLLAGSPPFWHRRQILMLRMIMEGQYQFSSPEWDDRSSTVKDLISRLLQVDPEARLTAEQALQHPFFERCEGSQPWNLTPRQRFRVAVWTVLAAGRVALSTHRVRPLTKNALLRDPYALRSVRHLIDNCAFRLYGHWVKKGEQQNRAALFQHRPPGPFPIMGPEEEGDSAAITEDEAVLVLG

EGFR(L861Q) = target: T31, EGFR(L861Q) (Homo sapiens, UniProt P00533, L861Q)
T31 construct: purchased DiscoveRx KINOMEscan

EPHA4 = target: T32, EPHA4 (Homo sapiens, UniProt P54764)
T32 construct: purchased DiscoveRx KINOMEscan

`CN1CCC(CNc2ccc3ncc(C(=O)Nc4cccc(OC(F)(F)F)c4)n3n2)CC1` [Cpd 2] showed a remaining binding at 1 µM (HASPIN) of 30%, a remaining binding at 1 µM (TLK1) of 98% and a remaining binding at 1 µM (CDK5) of 100%. The remaining binding at 1 µM (CSNK1D) was 100%, the remaining binding at 1 µM (KIT(V559D,T670I)) was 100% and the remaining binding at 1 µM (ULK1) was 98%. The remaining binding at 1 µM (RET) was 88%, the remaining binding at 1 µM (FLT3(N841I)) was 60% and the remaining binding at 1 µM (HIPK1) was 100%. The remaining binding at 1 µM (PIK3CA) was 100%, the remaining binding at 1 µM (RIPK4) was 96% and the remaining binding at 1 µM (RPS6KA5(KD1-N-t.)) was 100%. For the same molecule, the remaining binding at 1 µM (BMPR1A) was 97%, the remaining binding at 1 µM (PRKG1) was 100% and the remaining binding at 1 µM (PYK2) was 95%. It also gave a remaining binding at 1 µM (MTOR) of 100%, a remaining binding at 1 µM (MLK1) of 95% and a remaining binding at 1 µM (TIE1) of 90%. It also gave a remaining binding at 1 µM (PIK3CA(E542K)) of 92%, a remaining binding at 1 µM (DYRK1B) of 92% and a remaining binding at 1 µM (CAMK1B) of 97%. The remaining binding at 1 µM (TSSK3) was 95%, the remaining binding at 1 µM (PAK7) was 90% and the remaining binding at 1 µM (ABL1(F317I)-nonP) was 61%. The remaining binding at 1 µM (RPS6KA4(KD1-N-t.)) was 92%, the remaining binding at 1 µM (CAMK2B) was 92% and the remaining binding at 1 µM (PIK3CA(C420R)) was 100%. The remaining binding at 1 µM (CDKL5) was 100%, the remaining binding at 1 µM (MST4) was 100% and the remaining binding at 1 µM (PHKG2) was 89%. It also gave a remaining binding at 1 µM (EGFR(L861Q)) of 94% and a remaining binding at 1 µM (EPHA4) of 88%.
